Results on 2 compounds are retold here after publication PMC6562117, “The role of the tyrosine kinase Wzc (Sll0923) and the phosphatase Wzb (Slr0328) in the production of extracellular polymeric substances (EPS) by Synechocystis PCC 6803” (MicrobiologyOpen, 2019).

The target of assay [1] is T1, Wzb (Slr0328); His6-Wzb (Synechocystis sp. PCC 6803, UniProt Q55535).
T1 construct: one monomer in the asymmetric unit
Description: continuous p-nitrophenol release at […] nm. The class given is biochemical. The note with it: 10 mM pNPP, 100 mM sodium citrate pH 6.5, 1 mM EDTA, 0.1% beta-mercaptoethanol, 30 C.

Assay [2] concerns the target T2, Wzc (Sll0923); His6-Wzc (Synechocystis sp. PCC 6803, UniProt P72877).
T2 construct: gene epsB
Description: ATP consumption by luciferase bioluminescence (ENLITEN). In kind it is biochemical. The note with it: 25 mM Tris-HCl pH 7.0, 1 mM DTT, 5 mM MgCl2, 30 C, 45 min; heat-inactivated Wzc as control.

T1 sequence (Q55535 whole entry): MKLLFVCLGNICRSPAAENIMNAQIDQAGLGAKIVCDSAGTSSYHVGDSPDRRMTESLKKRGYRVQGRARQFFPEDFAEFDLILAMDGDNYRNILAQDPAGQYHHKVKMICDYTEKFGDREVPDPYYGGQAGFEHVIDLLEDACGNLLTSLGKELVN
T2 sequence (P72877 entry or part of it): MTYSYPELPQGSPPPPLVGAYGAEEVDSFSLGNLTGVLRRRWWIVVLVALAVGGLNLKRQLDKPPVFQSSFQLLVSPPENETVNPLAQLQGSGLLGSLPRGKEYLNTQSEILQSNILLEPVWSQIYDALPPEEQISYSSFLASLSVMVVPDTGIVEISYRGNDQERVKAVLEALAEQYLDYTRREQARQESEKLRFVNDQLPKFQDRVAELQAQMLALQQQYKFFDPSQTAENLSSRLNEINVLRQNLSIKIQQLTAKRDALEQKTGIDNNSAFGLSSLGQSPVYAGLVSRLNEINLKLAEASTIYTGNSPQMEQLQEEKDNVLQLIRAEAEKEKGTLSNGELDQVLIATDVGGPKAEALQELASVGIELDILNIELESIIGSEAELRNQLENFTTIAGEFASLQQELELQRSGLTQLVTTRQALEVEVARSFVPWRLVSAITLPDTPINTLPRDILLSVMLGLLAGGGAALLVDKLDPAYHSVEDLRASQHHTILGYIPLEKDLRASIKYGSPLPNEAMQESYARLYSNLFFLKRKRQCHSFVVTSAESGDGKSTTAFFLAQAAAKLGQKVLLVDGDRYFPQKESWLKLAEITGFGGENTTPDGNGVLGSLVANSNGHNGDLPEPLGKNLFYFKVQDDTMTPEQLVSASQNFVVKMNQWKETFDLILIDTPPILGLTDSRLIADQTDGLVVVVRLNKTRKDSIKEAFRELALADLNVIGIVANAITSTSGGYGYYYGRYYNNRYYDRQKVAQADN

Turning to `O=[N+]([O-])c1ccc(OP(=O)(O)O)cc1` [p-nitrophenyl phosphate], the “continuous p-nitrophenol release at 405 nm” value in assay [1] is “we first used a p‐nitrophenyl phosphate hydrolysis assay to confirm that Wzb functions as a phosphatase”.
For the compound `Nc1ncnc2c1ncn2[C@@H]1O[C@H](COP(=O)(O)OP(=O)(O)OP(=O)(O)O)[C@@H](O)[C@H]1O` [ATP], the “ATP consumption by luciferase bioluminescence (ENLITEN)” value in assay [2] was “Wzc is capable of ATP binding and hydrolysis”.
